These are literature values, as cited in patent publication US8679552B2, “Acne vulgaris treatment regimen” (priority 2008, dated 2014).

Bounds are passed on as bounds.

Data set [1] has as its system 5 alpha-reductase.
For another data set, the system named is comedones. Conditions: topical.
The next data set concerns the target T1, type-1 5 alpha-reductase (Homo sapiens, UniProt P18405).
T1 sequence (P18405 1-259): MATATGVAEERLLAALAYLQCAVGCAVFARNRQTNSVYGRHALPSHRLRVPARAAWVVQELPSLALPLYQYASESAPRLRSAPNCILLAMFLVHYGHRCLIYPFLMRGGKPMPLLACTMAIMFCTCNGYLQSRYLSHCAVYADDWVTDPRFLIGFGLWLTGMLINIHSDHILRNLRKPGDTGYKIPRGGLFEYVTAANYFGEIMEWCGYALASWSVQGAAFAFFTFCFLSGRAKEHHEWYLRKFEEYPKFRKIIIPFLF

The subject of another data set is skin irritation. Conditions: concentrations of 5%, three to four week period.
Data set [2] has as its system 17-beta-hydroxysteroid dehydrogenase.
Data set [3] relates to 5 alpha-reductase. This is another data set of the same source.

Turning to `O=C(O)CCCCCCCC(=O)O` [Azelaic acid], in the data set with 5 alpha-reductase [1], the “concentration at which effective / potent 5 alpha-reductase inhibitor” value is not below 0.2 milliMolar and the “concentration that is completely inhibitory of 5 alpha-reductase” value was 3 milliMolar.
In the case of `CC1=C(/C=C/C(C)=C/C=C/C(C)=C/C=O)C(C)(C)CCC1` [Retinaldehyde], the “effectiveness at preventing comedones” value in the data set with comedones (concentration of 0.1%) is given as “as effective at preventing comedones as other topical vitamin A products”. In the data set with gram-positive bacteria, the “in vitro antibacterial activity against gram-positive bacteria” value was “significant in vitro antibacterial activity”.
As for `Cc1ncc(CO)c(CO)c1O.Cl` [Vitamin B6, Pyridoxine hydrochloride], the “increase in the inhibition of 5 alpha-reductase” value with 5 alpha-reductase [1] (Vitamin B6 (0.025%) added to zinc sulfate (1.5 to 3 milliMolar/liter)) is reported as “two fold increase”.
Take `[Zn+2]` [Zinc cation]: the “inhibition of 5 alpha-reductase enzyme activity at high concentrations” value in the data set with 5 alpha-reductase [1] (high concentrations) is recorded as “completely inhibiting the enzyme activity”.
For the compound `O=C1c2ccccc2C(=O)c2c1ccc(O)c2O` [alizarin], on type-1 5 alpha-reductase, the “inhibition of type-1 5 alpha-reductase” value is “potent inhibitors”.
For the compound `Oc1ccc2c(O)c3ccccc3cc2c1O` [anthrarobin], the “inhibition of type-1 5 alpha-reductase” value at type-1 5 alpha-reductase is given as “potent inhibitors”.
For the compound `O=c1cc(-c2ccccc2)oc2cc(O)c(O)c(O)c12` [baicalein], at type-1 5 alpha-reductase, the “inhibition of type-1 5 alpha-reductase” value is “potent inhibitors”.
As for `O=C(/C=C/c1ccc(O)c(O)c1)OCCc1ccccc1` [caffeic acid phenethyl ester], on type-1 5 alpha-reductase, the “inhibition of type-1 5 alpha-reductase” value was “potent inhibitors”.
Turning to `CC(C)(CO)[C@@H](O)C(=O)NCCCO` [dexpanthenol], the “symptoms of skin irritation (dryness, roughness, scaling, pruritis, erythema, erosion/fissures)” value in the data set on skin irritation was “considerably improves”.
Consider `O=C1OC[C@H](Cc2cccc(O)c2)[C@H]1Cc1cccc(O)c1` [enterolactone], for which, in the data set on 5 alpha-reductase [1], the “5 alpha-reductase inhibitory activity” value is reported as “most potent inhibitor”.
With `O=c1c(O)c(-c2ccc(O)c(O)c2)oc2cc(O)ccc12` [fisetin], on type-1 5 alpha-reductase, the “inhibition of type-1 5 alpha-reductase” value was “potent inhibitors”.
As to `CC1(C)[C@@H](O)CC[C@]2(C)[C@H]3C(=O)C=C4[C@@H]5C[C@@](C)(C(=O)O)CC[C@]5(C)CC[C@@]4(C)[C@]3(C)CC[C@@H]12` [glycyrrhetinic acid], the “concentration which suppresses 17-beta-hydroxysteroid dehydrogenase activity” value in data set [2] is not below 4 microMolar.
As to `CCCCCCCCCCCCOC(=O)c1cc(O)c(O)c(O)c1` [lauryl gallate], the “inhibition of type-1 5 alpha-reductase” value at type-1 5 alpha-reductase is “potent inhibitors”.
Regarding `CC(Cc1ccc(O)c(O)c1)C(C)Cc1ccc(O)c(O)c1` (stereo not drawn) [nordihydroguaiaretic acid], the “inhibition of type-1 5 alpha-reductase” value at type-1 5 alpha-reductase is on record as “potent inhibitors”.
Take `CCCCCCCCOC(=O)c1cc(O)c(O)c(O)c1` [octyl gallate]: the “inhibition of type-1 5 alpha-reductase” value at type-1 5 alpha-reductase is listed as “potent inhibitors”.
Regarding `O=c1c(O)c(-c2ccc(O)c(O)c2)oc2cc(O)cc(O)c12` [quercitin], the “inhibition of type-1 5 alpha-reductase” value at type-1 5 alpha-reductase is reported as “potent inhibitors”.
With `O=C(O)c1ccccc1O` [salicylic acid, Salicylic acid], the comedolytic effect result in the data set on comedones (concentrations of 0.5% to 2.0%) is “moderately comedolytic”.
For the compound epigallocatechin 3-gallate [EGCG], in the data set with 5 alpha-reductase [1] (cell-free), the “inhibition of 5 alpha-reductase in cell-free assay systems” value is “potent inhibition”. Moreover, the “inhibition of 5 alpha-reductase in whole-cell assay systems” value in the data set with 5 alpha-reductase [3] was “not in whole-cell assay systems”.
